# Where “and” joins values, the source holds several entries; their conditions need not be identical. Equal entries are not always repeated.
# Legend:
# a2-PEG17K = tested on: T1, a2-PEG17K; test: Source-data fits for PSMα variants (170 µM): initial rates of nitrocefin hydrolysis (up to 240 µM) by absorbance at 480 nm in 50 mM Hepes pH 7.4 at 20 °C.; format: biochemical; settings: read-out: Km [uM] (AVG, source data sheet 2c,d_titration of nitrocefin)
# T1 construct: synthetic peptide, pre-assembled; modification not described beyond the name
# Description: Nitrocefin, a β-lactam widely used as a surrogate substrate of Penicillin in β-lactamase activity assay, was used as a substrate. NC degradation was monitored for 2 h. Nitrocefin stock solution was dissolved in acetonitrile (20 mM) and then diluted with Hepes buffer (50 mM, pH 7.4) to nitrocefin concentration of 360 µM (further dilutions to lower concentrations were made with the 360 µM NC stock). All nitrocefin samples were kept on ice in cold conditions and any further dilution or mixing was performed in ice-cold conditions to avoid self-hydrolysis background reaction. […] Immediately after mixing the samples, the plate was transferred to 20̊ °C pre-cooled plate reader (Multiskan GO, Thermo Scientific, Waltham, MA) and shaken slowly for 10 s. Then, the absorbance of degraded nitrocefin was measured for 2 h at interval of 20 s at λ = 480 nm. Initial production rates (V0) were calculated by slope of the initial linear range of degraded-nitrocefin production at the first 15 min. […] The initial rate calculations were performed while also subtracting the self-degradation of the substrate, to ensure that this product absorbance is a result of PSMα presence.
# The initial rates of degraded-nitrocefin production were calculated from the slopes of the first 15 min of measurement as reported above. […]
# [1] = tested on: Staphylococcus aureus (ATCC 25923); test: Staphylococcus aureus sensitivity to nitrocefin in the presence of PSMα (growth curves, OD 600 nm); format: cell-based; settings: nitrocefin 100 µg/mL, LB, 37 °C, 16 h
# Description: The antimicrobial activity of nitrocefin against Staphylococcus aureus (ATCC 25923) was examined in the presence or absence of pre-assembled PSMα3, while monitoring the growth of the bacterial strain. PSMα3 fibrils were prepared as described above, in aqueous solution, in concentration of 100 µM. The bacterial growth was monitored in bacterial growth curves prepared as following: 3 µL of S. aureus microbial culture (OD = 1) were added to 100 µL LB media (Difco Luria-Bertani medium, BD, France). The bacterial solution was supplemented with 100 µM of the PSMα3 solution (dissolved and preincubated in DIW) or equivalent volume of DIW as a control. Then, aqueous solution of nitrocefin was added to each sample, generating final concentration of 100 µg/mL. As control, the growth curve of S. aureus was examined without any additives. All the samples were incubated while shaking in sterile clear 96-well plates at 37 °C for 16 h, and the absorbance at 600 nm was monitored every 20 min steps by microplate reader (Varioskan Flash, Thermo Scientific, Waltham, MA). Measurements were performed at three biological replicates, each with five technical replicates. The values were plotted in the graph as mean ± SD of representative results.
# Figure S15. The effects of PSMα1 and PSMα4 upon nitrocefin in physiological scenarios. […]
# [2] = format: physicochemical; settings: PSMα3 preformed fibrils 400 µM, titration pH 3 to 10 with NaOH 0.05M (Fig. S10)
# [3] = Nitrocefin hydrolysis kinetics (absorbance of degraded nitrocefin at 480 nm; initial rates V0, Michaelis-Menten fit); format: biochemical; set-up: Initial nitrocefin-degradation reaction rate, V0: unit not given here; settings: for Initial nitrocefin-degradation reaction rate, V0: Hepes pH 7.4, average of the six runs
# Outline: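 Nitrocefin (up to 360 µM, diluted on ice in 50 mM Hepes pH 7.4) mixed with pre-incubated PSMα (510 µM solution); A480 read every 20 s for 2 h at 20 °C. V0 from first 15 min slopes, blank self-hydrolysis subtracted, fitted to Michaelis–Menten by non-linear regression; mean ± SEM, ≥5 repeats.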
# [4] = format: biochemical; settings: Aβ42 fibrils 100 µM, nitrocefin 170 µM, A480, two hours (Fig. S2)
molecule,measurement,setting,value
"O=C(Cc1cccs1)N[C@@H]1C(=O)N2C(C(=O)O)=C(/C=C/c3ccc([N+](=O)[O-])cc3[N+](=O)[O-])CS[C@H]12 [nitrocefin, 3-(2,4-Dinitrostyryl)-(6R,7R)-7-(2-thienylacetamido)-ceph-3-em-4-carboxylic acid]",Km,a2-PEG17K,2740 µM
"O=C(Cc1cccs1)N[C@@H]1C(=O)N2C(C(=O)O)=C(C=Cc3ccc([N+](=O)[O-])cc3[N+](=O)[O-])CS[C@H]12 [nitrocefin, 3-(2,4-Dinitrostyryl)-(6R, 7R)−7-(2-thienylacetamido)-ceph-3-em-4-carboxylic Acid]",effect of nitrocefin on bacterial growth,[1],significantly reduced bacterial proliferation
CSCC[C@H](N)C(=O)N[C@@H](CCC(=O)O)C(=O)N[C@@H](Cc1ccccc1)C(=O)N[C@H](C(=O)N[C@@H](C)C(=O)N[C@@H](CCCCN)C(=O)N[C@@H](CC(C)C)C(=O)N[C@@H](Cc1ccccc1)C(=O)N[C@@H](CCCCN)C(=O)N[C@@H](Cc1ccccc1)C(=O)N[C@@H](Cc1ccccc1)C(=O)N[C@@H](CCCCN)C(=O)N[C@@H](CC(=O)O)C(=O)N[C@@H](CC(C)C)C(=O)N[C@@H](CC(C)C)C(=O)NCC(=O)N[C@@H](CCCCN)C(=O)N[C@@H](Cc1ccccc1)C(=O)N[C@@H](CC(C)C)C(=O)NCC(=O)N[C@@H](CC(N)=O)C(=O)N[C@@H](CC(N)=O)C(=O)O)C(C)C [PSMα3],pKa of the amines (first value),[2],7.8
same,pKa of the amines (second value),[2],8.1
same,"Initial nitrocefin-degradation reaction rate, V0","[3]; PSMα 4.01424 uM, nitrocefin 60 µM",0.4242
same,"Initial nitrocefin-degradation reaction rate, V0","[3]; PSMα 6.02136 uM, nitrocefin 60 µM",-0.2476
same,"Initial nitrocefin-degradation reaction rate, V0","[3]; PSMα 9.03205 uM, nitrocefin 60 µM",0.6132
same,"Initial nitrocefin-degradation reaction rate, V0","[3]; PSMα 13.5481 uM, nitrocefin 60 µM",1.028
same,"Initial nitrocefin-degradation reaction rate, V0","[3]; PSMα 20.3221 uM, nitrocefin 60 µM",0.7515
same,"Initial nitrocefin-degradation reaction rate, V0","[3]; PSMα 30.4832 uM, nitrocefin 60 µM",-1.835
same,"Initial nitrocefin-degradation reaction rate, V0","[3]; PSMα 45.7247 uM, nitrocefin 60 µM",5.684
same,"Initial nitrocefin-degradation reaction rate, V0","[3]; PSMα 68.5871 uM, nitrocefin 60 µM",8.525
same,"Initial nitrocefin-degradation reaction rate, V0","[3]; PSMα 102.881 uM, nitrocefin 60 µM",29.1642
same,"Initial nitrocefin-degradation reaction rate, V0","[3]; PSMα 154.321 uM, nitrocefin 60 µM",32.1116
same,"Initial nitrocefin-degradation reaction rate, V0","[3]; PSMα 231.481 uM, nitrocefin 60 µM",46.236
same,"Initial nitrocefin-degradation reaction rate, V0","[3]; PSMα 347.222 uM, nitrocefin 60 µM",69.7594
same,nitrocefin degradation yield (turnover),"[3]; nitrocefin 60 µM, PSMα assemblies 350 µM, Hepes 50 mM pH 7.4, 20 °C, A480, monitored 2 h (Fig. 2a)",75%
same,initial rate of nitrocefin degradation reaction (V0),"[3]; peptide 170 µM, initial nitrocefin 107 µM, Hepes 50 mM pH 7.4, 20 °C, first 15 min (Fig. 3f)",around 60 µM/h
same,time to degrade the entire nitrocefin reservoir,"[3]; peptide 170 μM, nitrocefin 107 µM, Hepes pH 7.4 (Fig. 3e)",~ 40 min
same,ATR-FTIR amide-I peak/maximum,,1660 cm⁻¹ and 1650 cm⁻¹
"β-amyloid fibrils: Amyloid-β sequence 1-42 fibrils, control cross-β amyloid",β-lactam (nitrocefin) degradation by control amyloid,[4],very low β-lactam degradation
